Results on 69 molecules are retold here after PubChem BioAssay AID493191 (Broad Institute, 2011).

The subject of this assay is MALME3 melanoma viability, CellTiter-Glo luminescence, 24 h. The assay can be described thus: growth inhibition of MALME3 cells – cell-based, CellTiter-Glo, cherry-picked, orthogonal assay for MITF inhibitor project, dose response (AID 493191).

Molecules are shown by their SMILES.

One may read the AC50 as the midpoint of the concentration-response curve, whichever way the signal moves. On to `O=C1C(Nc2ccccc2)=C(N2CCCCC2)C(=O)c2ccccc21`, for which the AC50 was 18.2 µM. With `O=C(NC1CCCC(C(F)(F)F)C1)c1ccc([N+](=O)[O-])o1` (centres undefined) the figure was 20.8 µM; with `O=C(CCl)Nc1cccc(Oc2ccccc2)c1`, 28.7 µM.

In the case of `COc1ccc(CNCCC(c2ccc(F)cc2)c2ccc(OC)cc2)cc1` (centres undefined), the AC50 is 22 µM. With `Cc1cc(-n2c(SCC(=O)NCCC3=CCCCC3)nc3n[nH]c(C)c3c2=N)ccc1Cl` the figure was 28.6 µM; with `CC1(C)CC(NC(=O)c2ccc(Cl)c(S(=O)(=O)N(Cc3ccccc3)c3ccccc3)c2)CC(C)(C)N1`, 22.7 µM. With `O=C(N/N=C/c1ccc([N+](=O)[O-])s1)c1ccccc1Br`, the concentration at half-maximal activity (AC50) was 26.9 µM. With `Nc1nc2ccccc2n1/N=C/c1ccc([N+](=O)[O-])s1` the figure was 16.3 µM; with `Cc1ccc(C(=O)N/N=C/c2ccc([N+](=O)[O-])s2)cc1`, 22.6 µM; with `N=c1n(CCN2CCCC2)c2ccccc2n1CC(O)c1ccc(Cl)c(Cl)c1` (centres undefined), 22.5 µM.

Consider `CCN1c2ccccc2NC2N=C(OC)C(c3ccccc3)C21` (centres undefined), for which the AC50 is 7.13 µM. The figure for `COc1ccc(C(=O)/C=C/C(=O)N(CC(=O)NC2CCCCC2)Cc2ccccc2OC)c(O)c1` is 4.63 µM. With `CCN1CCN(C2=C(NS(=O)(=O)c3ccc(C)cc3)C(=O)c3ccccc3C2=O)CC1` the figure was 11.9 µM.

On to `CCSCCc1nnc(NC(=O)Nc2cccc(C(F)(F)F)c2)s1`, for which the AC50 is 29 µM. For the molecule `OC(CNCC(c1ccc(Cl)cc1Cl)c1c[nH]c2ccccc12)c1ccccc1` (centres undefined), the AC50 is 19.1 µM.

As to `Oc1cc(NCCN2CCOCC2)cc2cccnc12`, the AC50 is 24.6 µM. Turning to `O=C1c2cc(F)ccc2-n2c1nc1ccccc1c2=O`, the AC50 is 4.39 µM. As to `COc1cccc(C(=O)Oc2c(CN3CCOCC3)cc(Cl)c3cccnc23)c1`, the AC50 is 30.7 µM. The figure for `CN1CCN(C2=C(NS(=O)(=O)c3ccccc3)C(=O)c3ccccc3C2=O)CC1` is 11.2 µM; for `Cc1[nH]c2ccccc2c1C(=O)CCl` it is 27.6 µM; for `Cn1c(SCC(=O)N/N=C/c2ccc([N+](=O)[O-])s2)nnc1-c1ccccc1` it is 14.7 µM.

With `O=C(Cn1ncc(Cl)c(Cl)c1=O)NC1CCCCC1`, the AC50 is 24.8 µM. With `CCN1CCN(C2=C(NS(=O)(=O)c3ccc(Br)cc3)C(=O)c3ccccc3C2=O)CC1` the figure was 20.1 µM. With `CCN(CC)CCNC(=O)c1ccc(NC(=O)c2cn(-c3ccccc3)nc2-c2cccs2)cc1` the figure was 17.8 µM. Regarding `COc1ccc(-c2nn(-c3ccccc3)cc2/C=N/N=C(N)N)cc1OC`, the AC50 was 21.9 µM. With `Cc1ccc(NC2=C(Cl)C(=O)c3ccccc3C2=O)cc1` the figure was 6.96 µM. Take `CC1=NNC(=O)/C1=C\c1cn(-c2ccccc2)nc1-c1ccc(F)cc1`: the AC50 was 25.9 µM. The figure for `COC(=O)CCS(=O)(=O)c1nc(-c2ccccc2)cc(C(F)(F)F)n1` is 14.9 µM. The figure for `CCN1CCN(c2ccc(S(=O)(=O)N3CCCCC3)cc2NC(=O)/C=C/c2cccc(OC)c2OC)CC1` is 29.7 µM; for `CC1CCC(C(C)C)C(OC(=O)Cn2c(-c3ccc(Br)cc3)[n+](C)c3ccccc32)C1` (centres undefined) it is 10.1 µM; for `Cc1ccc(NC(=O)CCC(=O)N/N=C/c2ccc([N+](=O)[O-])o2)cc1C` it is 21.9 µM. The figure for `CCc1ccccc1NC(=O)CN(C)C(=O)Cn1ncc(Cl)c(Cl)c1=O` is 11.8 µM; for `Cc1ccc(NC(=O)Cn2ncc(Cl)c(Cl)c2=O)cc1S(=O)(=O)N1CCCCC1` it is 15.8 µM.

Turning to `CC1CCC(C(C)C)C(OC(=O)C[n+]2cc(-c3ccc(Cl)cc3)n3c2CCCCC3)C1` (centres undefined), the AC50 was 18 µM. With `Cc1oc(-c2ccc(Cl)cc2)nc1CN1CCC(C(=O)NCCCN2CCCC(C)C2)CC1` (centres undefined), the AC50 is 24.4 µM. With `Cc1ccc(-n2nnnc2CNC(=O)c2ccc([N+](=O)[O-])o2)cc1C` the figure was 21.5 µM.

For `Cc1ccc2nc(N(CCCN(C)C)C(=O)c3ccc4c(c3)CCCC4)sc2c1`, the AC50 is 21.6 µM. As for `CC1CCC(C(C)C)C(OC(=O)Cn2c(-c3ccc(Cl)cc3)[n+](C)c3ccccc32)C1` (centres undefined), the AC50 was 11.7 µM. The figure for `CCCOCc1ccc(O)c2ncccc12` is 32.2 µM; for `Cc1cccc(NC2=C(NC(=O)c3ccccc3)C(=O)c3ccccc3C2=O)c1` it is 25.3 µM; for `Cn1c(SC2=CS(=O)(=O)c3ccccc32)nc2ccccc21` it is 19.7 µM. With `CCN(CC)CCC(=O)N1C/C(=C/c2ccccc2)C(=O)/C(=C\c2ccccc2)C1` the figure was 28.3 µM; with `O=C(Nc1ccc(S(=O)(=O)NC2=NCCCCC2)cc1)c1ccc([N+](=O)[O-])s1`, 18.4 µM. The figure for `CCn1c(=O)c([N+](=O)[O-])c(Cl)c2ccccc21` is 27.9 µM; for `Cc1[nH]nc2nc(SCC(=O)NCCC3=CCCCC3)n(-c3ccc(Br)cc3)c(=N)c12` it is 20.5 µM; for `CC1CCC/C=C/C(=O)c2c(O)cc(O)cc2CC(=O)O1` (centres undefined) it is 21.2 µM.

As to `CN(C(=O)/C=C/c1ccc([N+](=O)[O-])s1)c1ccccc1`, the AC50 was 34.4 µM. Turning to `O=C(Nc1nc(-c2ccccn2)cs1)c1ccc([N+](=O)[O-])o1`, the AC50 was 28.5 µM. The figure for `CN(C)CCNC(=O)/C(=C/c1ccc(-c2ccc(Cl)cc2Cl)o1)NC(=O)c1ccccc1` is 18 µM; for `CCOC(=O)c1cc2sccc2n1CC(=O)N1c2ccccc2CC1C` (centres undefined) it is 25 µM; for `CC(C)Oc1ccc(C(CCNCc2ccc(O)cc2)c2ccccc2)cc1` (centres undefined) it is 32.9 µM.

In the case of `CCc1ccc(NC2=CC(=O)C(=O)c3ccccc32)cc1`, the AC50 is 6.91 µM.

As to `O=C1/C(=C/c2ccccc2[N+](=O)[O-])COc2ccccc21`, the AC50 is 25.3 µM.

Consider `N=c1n(CC(=O)c2ccc([N+](=O)[O-])cc2)c2ccccc2n1Cc1ccccc1`, for which the AC50 was 25.4 µM. With `O=C(c1ccccc1)c1cc(Cl)ccc1N1C(=O)C=CC1=O` the figure was 9.06 µM. Take `CC(C)(C)C(=O)/C(=C/c1ccncc1)n1cncn1`: the AC50 is 21.9 µM. As for `O=C(N/N=C/c1cccc2cccnc12)c1ccccc1O`, the AC50 is 29.7 µM.

In the case of `CC(C)(C)c1ccc(OCCCNCc2ccccc2)cc1`, the AC50 was 27.4 µM. For the molecule `Cc1ccccc1C(=O)N1CCN(c2ccc(NC(=O)c3ccc([N+](=O)[O-])o3)cc2)CC1`, the AC50 was 9.64 µM. The figure for `CC1CC2(C)Oc3ccccc3CC2C(C)C1CNCCCN(C)C` (centres undefined) is 15.9 µM. As to `O=C(CS(=O)c1ccc(C(F)(F)F)cc1[N+](=O)[O-])Oc1ccccc1` (centres undefined), the AC50 is 20.7 µM.

For `Cc1ccc(NC(=O)c2ncn(CCCN[C@H](C)c3cccc4ccccc34)n2)cc1C`, the AC50 is 29.2 µM. With `Cc1ccc(C(O)(c2ccc(C)c(C)c2)C2CN3CCC2CC3)cc1C` (centres undefined) the figure was 22.7 µM; with `CN1CCN(c2ccc(NC(=O)c3ccc([N+](=O)[O-])o3)cc2Cl)CC1`, 21.3 µM. With `CCCNC(=O)COC(=O)c1ccccc1C(=O)c1ccc(Cl)c([N+](=O)[O-])c1` the figure was 16.3 µM; with `Cc1ccc(-c2nc(C(=O)NCCCN(C)C)cc3c2[nH]c2ccccc23)cc1`, 31.1 µM. The figure for `COc1ccccc1OCC(=O)N/N=C/C=C/c1ccc([N+](=O)[O-])o1` is 20.6 µM. Consider `CCCC(=O)N1CCN(c2ccc(NC(=O)c3ccc([N+](=O)[O-])o3)cc2)CC1`, for which the AC50 is 8.62 µM. With `CC(=O)N(C)C1=C(N2CCOCC2)C(=O)c2ccccc2C1=O` the figure was 12.7 µM.
